Columns and labels:
[1] = Cytotoxicity against human MRC5 cells assessed as cell viability at 100 uM relative to control; assay type: cell-based; settings: read-out: Activity
[2] = Cytotoxicity against human HK1 cells assessed as reduction in cell viability; assay type: functional, cell-based; settings: HK-1
Caco-2 [3] = assay: Cytotoxicity against human Caco2 cells assessed as cell viability at 100 uM relative to control; assay type: functional; settings: read-out: Activity
T47D [4] = assay: Cytotoxicity against human T47D cells assessed as reduction in cell viability; assay type: functional, cell-based
SW48 [5] = assay: Cytotoxicity against human SW48 cells assessed as cell viability at 100 uM relative to control; assay type: functional; settings: read-out: Activity
MCF-10A = assay: Cytotoxicity against human MCF10A cells assessed as reduction in cell viability; assay type: cell-based
T47D [6] = assay: Cytotoxicity against human T47D cells assessed as cell viability at 100 uM relative to control; assay type: functional; settings: read-out: Activity
A549 [7] = assay: Cytotoxicity against human A549 cells assessed as cell viability at 100 uM relative to control; assay type: functional; settings: read-out: Activity
HT-29 [8] = assay: Cytotoxicity against human HT-29 cells assessed as cell viability at 100 uM relative to control; assay type: functional; settings: read-out: Activity
BXPC-3 [9] = assay: Cytotoxicity against human BxPC3 cells assessed as cell viability at 100 uM relative to control; assay type: functional; settings: read-out: Activity
MDA-MB-231 [10] = assay: Cytotoxicity against human MDA-MB-231 cells assessed as reduction in cell viability; assay type: functional, cell-based
Caco-2 [11] = assay: Cytotoxicity against human Caco2 cells assessed as reduction in cell viability; assay type: functional, cell-based
NCI-H1299 [12] = assay: Cytotoxicity against human H1299 cells assessed as cell viability at 100 uM relative to control; assay type: functional; settings: read-out: Activity
ASPC1 [13] = assay: Cytotoxicity against human AsPC1 cells assessed as cell viability at 100 uM relative to control; assay type: functional; settings: read-out: Activity
SH-SY5Y [14] = assay: Cytotoxicity against human SH-SY5Y cells assessed as cell viability at 100 uM relative to control; assay type: functional; settings: read-out: Activity
SUNE1 [15] = assay: Cytotoxicity against human SUNE1 cells assessed as reduction in cell viability; assay type: functional, cell-based
SK-BR-3 [16] = assay: Cytotoxicity against human SKBR3 cells assessed as cell viability at 100 uM relative to control; assay type: functional; settings: read-out: Activity
MDA-MB-468 [17] = assay: Cytotoxicity against human MDA-MB-468 cells assessed as cell viability at 100 uM relative to control; assay type: functional; settings: read-out: Activity
SK-BR-3 [18] = assay: Cytotoxicity against human SKBR3 cells assessed as reduction in cell viability; assay type: functional, cell-based
SW1990 [19] = assay: Cytotoxicity against human SW1990 cells assessed as cell viability at 100 uM relative to control; assay type: functional; settings: read-out: Activity
BXPC-3 [20] = assay: Cytotoxicity against human BxPC3 cells assessed as reduction in cell viability; assay type: functional, cell-based
SH-SY5Y [21] = assay: Cytotoxicity against human SH-SY5Y cells assessed as reduction in cell viability; assay type: functional, cell-based
MCF7 [22] = assay: Cytotoxicity against human MCF7 cells assessed as cell viability at 100 uM relative to control; assay type: functional; settings: read-out: Activity
SW48 [23] = assay: Cytotoxicity against human SW48 cells assessed as reduction in cell viability; assay type: functional, cell-based
MDA-MB-468 [24] = assay: Cytotoxicity against human MDA-MB-468 cells assessed as reduction in cell viability; assay type: functional, cell-based
MCF7 [25] = assay: Cytotoxicity against human MCF7 cells assessed as reduction in cell viability; assay type: functional, cell-based
[26] = Cytotoxicity against human MCF10A cells assessed as cell viability at 100 uM relative to control; assay type: cell-based, MCF-10A; settings: read-out: Activity
MDA-MB-231 [27] = assay: Cytotoxicity against human MDA-MB-231 cells assessed as cell viability at 100 uM relative to control; assay type: functional; settings: read-out: Activity
[28] = Cytotoxicity against human HK1 cells assessed as cell viability at 100 uM relative to control; assay type: functional; settings: HK-1, read-out: Activity
ASPC1 [29] = assay: Cytotoxicity against human AsPC1 cells assessed as reduction in cell viability; assay type: functional, cell-based
SW1990 [30] = assay: Cytotoxicity against human SW1990 cells assessed as reduction in cell viability; assay type: functional, cell-based
HCT-116 [31] = assay: Cytotoxicity against human HCT116 cells assessed as reduction in cell viability; assay type: functional, cell-based
SUNE1 [32] = assay: Cytotoxicity against human SUNE1 cells assessed as cell viability at 100 uM relative to control; assay type: functional; settings: read-out: Activity
HT-29 [33] = assay: Cytotoxicity against human HT-29 cells assessed as reduction in cell viability; assay type: functional, cell-based
A549 [34] = assay: Cytotoxicity against human A549 cells assessed as reduction in cell viability; assay type: functional, cell-based
NCI-H1299 [35] = assay: Cytotoxicity against human H1299 cells assessed as reduction in cell viability; assay type: functional, cell-based
MRC5 = assay: Cytotoxicity against human MRC5 cells assessed as reduction in cell viability; assay type: cell-based
CNE [36] = assay: Cytotoxicity against human CNE1 cells assessed as reduction in cell viability; assay type: functional, cell-based
CNE [37] = assay: Cytotoxicity against human CNE1 cells assessed as cell viability at 100 uM relative to control; assay type: functional; settings: read-out: Activity
HCT-116 [38] = assay: Cytotoxicity against human HCT116 cells assessed as cell viability at 100 uM relative to control; assay type: functional; settings: read-out: Activity

Compound	viability at 100 µM [1] [%]	IC50 [2] [µM]	viability at 100 µM (Caco-2 [3]) [%]	IC50 (T47D [4]) [µM]	viability at 100 µM (SW48 [5]) [%]	IC50 (MCF-10A) [µM]	viability at 100 µM (T47D [6]) [%]	viability at 100 µM (A549 [7]) [%]	viability at 100 µM (HT-29 [8]) [%]	viability at 100 µM (BXPC-3 [9]) [%]	IC50 (MDA-MB-231 [10]) [µM]	IC50 (Caco-2 [11]) [µM]	viability at 100 µM (NCI-H1299 [12]) [%]	viability at 100 µM (ASPC1 [13]) [%]	viability at 100 µM (SH-SY5Y [14]) [%]	IC50 (SUNE1 [15]) [µM]	viability at 100 µM (SK-BR-3 [16]) [%]	viability at 100 µM (MDA-MB-468 [17]) [%]	IC50 (SK-BR-3 [18]) [µM]	viability at 100 µM (SW1990 [19]) [%]	further results
O=[N+]([O-])c1ccc(NC(CO)CO)cc1	32.2	> 100	101	> 100	95.3	> 100	73.6	96.7	96.3	100	> 100	> 100	92.7	96.4	99.9	> 100	93.1	102	> 100	87.5	IC50 (BXPC-3 [20]): > 100 µM; IC50 (SH-SY5Y [21]): > 100 µM; viability at 100 µM (MCF7 [22]): 65.6%; IC50 (SW48 [23]): > 100 µM; IC50 (MDA-MB-468 [24]): > 100 µM; IC50 (MCF7 [25]): > 100 µM; viability at 100 µM [26]: 103%; viability at 100 µM (MDA-MB-231 [27]): 87.7%; viability at 100 µM [28]: 99.6%; IC50 (ASPC1 [29]): > 100 µM; IC50 (SW1990 [30]): > 100 µM; IC50 (HCT-116 [31]): > 100 µM; viability at 100 µM (SUNE1 [32]): 109%; IC50 (HT-29 [33]): > 100 µM; IC50 (A549 [34]): > 100 µM; IC50 (NCI-H1299 [35]): > 100 µM; IC50 (MRC5): 60.2 µM; IC50 (CNE [36]): > 100 µM; viability at 100 µM (CNE [37]): 104%; viability at 100 µM (HCT-116 [38]): 89.7%
O=[N+]([O-])c1ccccc1NC(CO)CO	101	> 100	95.1	> 100	102	> 100	76.2	74.9	86.1	102	> 100	> 100	96.7	101	89.7	> 100	101	104	> 100	91.9	IC50 (BXPC-3 [20]): > 100 µM; IC50 (SH-SY5Y [21]): > 100 µM; viability at 100 µM (MCF7 [22]): 66.6%; IC50 (SW48 [23]): > 100 µM; IC50 (MDA-MB-468 [24]): > 100 µM; IC50 (MCF7 [25]): > 100 µM; viability at 100 µM [26]: 100%; viability at 100 µM (MDA-MB-231 [27]): 91.8%; viability at 100 µM [28]: 90.1%; IC50 (ASPC1 [29]): > 100 µM; IC50 (SW1990 [30]): > 100 µM; IC50 (HCT-116 [31]): > 100 µM; viability at 100 µM (SUNE1 [32]): 99.3%; IC50 (HT-29 [33]): > 100 µM; IC50 (A549 [34]): > 100 µM; IC50 (NCI-H1299 [35]): > 100 µM; IC50 (MRC5): > 100 µM; IC50 (CNE [36]): > 100 µM; viability at 100 µM (CNE [37]): 102%; viability at 100 µM (HCT-116 [38]): 76.9%
O=[N+]([O-])c1ccccc1NC(CCl)CCl	54.8	> 100	104	> 100	62.6	> 100	69.8	82.9	65.3	105	> 100	> 100	109	75.2	60.8	> 100	79.9	63.6	> 100	64.4	IC50 (BXPC-3 [20]): > 100 µM; IC50 (SH-SY5Y [21]): > 100 µM; viability at 100 µM (MCF7 [22]): 37.7%; IC50 (SW48 [23]): > 100 µM; IC50 (MDA-MB-468 [24]): > 100 µM; IC50 (MCF7 [25]): 50.9 µM; viability at 100 µM [26]: 88.7%; viability at 100 µM (MDA-MB-231 [27]): 85.1%; viability at 100 µM [28]: 101%; IC50 (ASPC1 [29]): > 100 µM; IC50 (SW1990 [30]): > 100 µM; IC50 (HCT-116 [31]): > 100 µM; viability at 100 µM (SUNE1 [32]): 80.5%; IC50 (HT-29 [33]): > 100 µM; IC50 (A549 [34]): > 100 µM; IC50 (NCI-H1299 [35]): > 100 µM; IC50 (MRC5): > 100 µM; IC50 (CNE [36]): > 100 µM; viability at 100 µM (CNE [37]): 72.5%; viability at 100 µM (HCT-116 [38]): 64.9%

Reference: ChEMBL document CHEMBL4610038, “The synthesis of trifluoromethylated N-nitroaryl-2-amino-1,3-dichloropropane derivatives and their evaluation as potential anti-cancer agents” (Bioorg Med Chem Lett, 2020)
